Measured values reported in patent US9101620B2, “Polymorph of 3-(substituteddihydroisoindolinone-2-yl)-2,6-dioxopiperidine, and pharmaceutical compositions thereof” (Nanjing Cavendish Bio-Engineering Technology Co., Ltd., priority 2009, dated 2015).

How the values were obtained:
[1] = Acid destruction (0.1 mol/L HCl), related substances by HPLC; format: physicochemical
Experimental: Acid destruction: 50 mg of sample weighted accurately was added into measuring flask of 100 mL, and 10 mL 0.1 mol/L HCl solution was added. After standing at room temperature for 1 hour, an equal amount of 0.1 mol/L NaOH solution was added for neutralization. Then the mixture was diluted with mobile phase to scale and shook to be homogeneous, and determined by HPLC.
(§1) HPLC conditions and system applicability: octadecylsilane bonded silica as the filler; 0.01 mol/L of potassium dihydrogen phosphate (adjusted to pH 3.5 by phosphoric acid)-methanol-acetonitrile (80:15:5) as the mobile phase; detection wavelength was 240 nm; the number of theoretical plates should be not less than 2000, calculated according to the peak of lenalidomide. The resolution of the peak of 3-(4-amino-1-oxo-1,3-dihydro-2H-isoindole-2-yl)-piperidine-2,6-dione from the peaks of adjacent impurities should meet requirements.
(§2) Determination method: sample was dissolved in mobile phase to be the solution containing 0.5 mg per 1 mL. 20 μL of such solution was injected into liquid chromatograph and chromatogram was recorded until fourfold the retention time of major component peak. If there were impurities peaks in the chromatogram of sample solution, total impurities and sole impurity were calculated by normalization method on the basis of peak area.

[2] = Destruction test: impurities in raw materials before destruction (HPLC); format: physicochemical
Description: The methods of destruction experiment of the Polymorph I of this invention (hereinafter referred to as “Polymorph I”) contrasting with the Polymorph A and B of 3-(4-amino-1-oxo-1,3-dihydro-2H-isoindole-2-yl)-piperidine-2,6-dione prepared by the method in CN 1871003A (hereinafter referred to as “Polymorph A” and “polymorph B”) and results of stability are followed:
as §1, §2

[3] = 0.1 mol/L HCl, room temperature, 1 hour

- Major impurity, peak tR4.717-4.737 [1, 3]: 0.20%
- Major impurity, peak tR7.367-7.381 [1, 3]: 0.41%
- Major impurity, peak tR11.067-11.100 [1, 3]: 0.01%
- Total impurities generated by 0.1 mol/L acid destruction for 1 hour [1, 3]: impurities: 0.62%
- Chemical stability (in words) ([1]; acid condition / 0.1 mol/L diluted HCl solution): better stability
- Major impurity, peak tR5.872-5.948 [2]: 0.01%
- Major impurity, peak tR10.961-11.165 [2]: 0.03%
- Total impurities in raw materials before destruction ([2]; HPLC peak area normalization): impurities: 0.04%
SMILES: Nc1cccc2c1CN(C1CCC(=O)NC1=O)C2=O (single isomer, unassigned) [Polymorph I, 3-(4-amino-1-oxo-1,3-dihydro-2H-isoindole-2-yl)-piperidine-2,6-dione]
